Assay results as given in paper PMC12640663 (Chemmedchem, 2025).
Where two headings read alike, the source gives them in different places.

Columns and labels:
TCPTP = molecular target: T1, TCPTP (Homo sapiens, UniProt P17706); assay: T‐cell protein tyrosine phosphatase (TCPTP) activity assay (p‐NPP); format: biochemical; conditions: for TCPTP inhibition (in words): up to 100 μM
T1 sequence (P17706 1-415): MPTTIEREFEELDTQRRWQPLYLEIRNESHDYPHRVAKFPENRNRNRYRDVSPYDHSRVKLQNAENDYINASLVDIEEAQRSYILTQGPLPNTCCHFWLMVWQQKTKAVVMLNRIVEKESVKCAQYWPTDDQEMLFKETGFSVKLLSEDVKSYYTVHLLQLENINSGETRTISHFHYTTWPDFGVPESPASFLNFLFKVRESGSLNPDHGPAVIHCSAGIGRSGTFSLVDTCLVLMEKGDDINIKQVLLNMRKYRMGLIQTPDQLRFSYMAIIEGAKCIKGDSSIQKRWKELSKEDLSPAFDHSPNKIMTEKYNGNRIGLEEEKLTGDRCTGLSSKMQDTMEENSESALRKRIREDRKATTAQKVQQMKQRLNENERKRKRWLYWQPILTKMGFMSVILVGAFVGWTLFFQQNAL
Experimental: The effectiveness and safety of protein tyrosine phosphatase (PTP) inhibitors depend on their specificity. PTP1B and TCPTP serve different functions: PTP1B is involved in metabolism and cancer, while TCPTP regulates immune function. Inhibiting TCPTP could impact the immune response, whereas inhibiting PTP1B may benefit metabolic diseases without these side effects.^[ [20] ^, [34] ^, [35] ^] […] These compounds were assessed up to 100 μM (Table 1).
TCPTP enzyme reported by Mendoza et al. was used for this assay. […] Aliquots of 0–10 µL (triplicate) of the newly synthesized compounds, positive control, and solvent were taken. These were incubated with 85 µL of enzyme solution (Tris, 50 mM, pH 6.8, TCPTP) and 5 µL of substrate (p‐NPP, 10 mM) for 15 min at 37 °C.

hPTP1B1–400 [1] = molecular target: T2, hPTP1B1–400 (Homo sapiens, UniProt P18031); assay: PTP1B activity assay, long form hPTP1B1–400 (p‐NPP); format: biochemical; parameters: hPTP1B1–400 (the long form with an intrinsically disordered C‐terminal regulatory domain); conditions: for IC50: ± S.D, p‐NPP substrate, 15 min at 37 °C, triplicate
T2 sequence (P18031 1-400): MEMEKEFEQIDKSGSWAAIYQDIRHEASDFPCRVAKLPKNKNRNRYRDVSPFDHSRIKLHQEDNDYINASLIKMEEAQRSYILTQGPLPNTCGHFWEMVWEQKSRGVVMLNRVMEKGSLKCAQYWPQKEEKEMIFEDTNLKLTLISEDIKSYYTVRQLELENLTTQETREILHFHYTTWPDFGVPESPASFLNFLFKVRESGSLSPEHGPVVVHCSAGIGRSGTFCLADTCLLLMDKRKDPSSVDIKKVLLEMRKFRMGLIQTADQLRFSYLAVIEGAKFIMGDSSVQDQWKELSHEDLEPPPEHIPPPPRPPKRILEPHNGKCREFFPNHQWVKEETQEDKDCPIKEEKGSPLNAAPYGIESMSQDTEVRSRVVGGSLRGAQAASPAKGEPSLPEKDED
Experimental: The inhibitory activity of PTP1B was assessed using two enzyme variants: hPTP1B1–285 (the short form with an N‐terminal catalytic domain) and hPTP1B1–400 (the long form with an intrinsically disordered C‐terminal regulatory domain). […] According to Coronel‐Tovar et al., the disordered region of the C‐terminal domain plays a crucial role in modulating PTP1B enzymatic activity.^[ [30] ^] […] Different concentrations of the compounds were evaluated to determine their IC50 values (Table 1 ).
Recombinant human protein tyrosine phosphatase 1B, consisting of 400 and 285 amino acid residues, was used.^[ [35] ^] […] Aliquots of 0–10 µL of the test compounds (triplicate) were taken and incubated for 15 min at 37 °C with 85 µL of Tris buffer solution (50 mM, pH 6.8) containing PTP1B enzyme and 5 µL of p‐nitrophenyl phosphate substrate (p‐NPP, 10 mM). Absorbance was then measured at a wavelength of 405 nm. The inhibitory activity was determined according to Equation (1). (1) % PTP1B=(A405b/A405c)×100 where % PTP1B: Is the percentage of inhibition. A 405c: Is the corrected absorbance of the blank (A 405initial–A 405final). A 405b: Is the corrected absorbance of the compounds (A 405control–A 405compound).

PTP1B = conditions: cited from earlier work
hPTP1B1–400 [2] = molecular target: T2, hPTP1B1–400; assay: Kinetic studies of PTP1B (hPTP1B1–400); conditions: for Inhibition type: hPTP1B1–400; for K m / V max: hPTP1B1–400 with inhibitor;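 for all read-outs here: enzyme kinetics run across a range of substrate and inhibitor levels, control lacking inhibitor, triplicate runs, parameters derived by fitting Michaelis–Menten style equations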
Experimental: Kinetic analyses were performed at various substrate and inhibitor concentrations.
The negative control was prepared with the enzyme and substrate in the absence of the inhibitor. Experiments were conducted in triplicate.^[ [30] ^] […] The kinetic parameters of enzyme inhibition, K m and V max, were determined by fitting the data to the Michaelis‐Menten model, Equation (3) (OriginPro 2018 (64‐bit) SR1). (3) y=VmaxX/Km+X´ where V max: is the maximum velocity, X: is the inhibitor concentration, K m: Michaelis constant.
(4) y=Vmax(X)/(Km/1+I/Ki)+X where V max: maximum velocity, X: substrate concentration, I: inhibitor concentration, K m: Michaelis constant, K i : inhibition constant.

hPTP1B1−322 = tested on: hPTP1B1−322; parameters: method as in PMID 37628991; conditions: previous research, cited from earlier work; for IC50: read-out: IC50 against hPTP1B1−322; for Ki: read-out: K i against hPTP1B1−322
[3] = ± S.D, assessed up to 100 μM, read-out: TCPTP IC50

Row | IC50 (TCPTP; [3]) [µM] | IC50 (hPTP1B1–400 [1]) [µM] | Compound | TCPTP inhibition (in words) (TCPTP) | Inhibition type (hPTP1B1–400 [2]) | K m (hPTP1B1–400 [2]; ± S.D) [µM] | V max (hPTP1B1–400 [2]; ± S.D) [mM/min] | further results
1 | > 100 | 2.05 ± 0.09 | Cc1ccc(-n2ncc3c2C(C)(C)C2CCC4(C)C(CC=C5C6CC(C)(C(=O)O)CCC6(C)CCC54C)C2(C)C3)cc1 (centres unmarked) [Compound 5a] |  |  |  |  | 
2 |  |  | [Na+].[Na+].[Na+].[O]=[V]([O-])([O-])[O-] [SOV, sodium orthovanadate] | inhibited both PTP1B and TCPTP |  |  |  | type of PTP1B inhibition (PTP1B): nonselective, competitive, and reversible inhibitor
3 |  |  | CC1(C)[C@@H](O)CC[C@]2(C)[C@H]3C(=O)C=C4[C@H]5C[C@@](C)(C(=O)O)CC[C@]5(C)CC[C@@]4(C)[C@]3(C)CC[C@@H]12 [18α‐GA, 18α‐glycyrrhetinic acid] | do not inhibit TCPTP | uncompetitive inhibition | 2110 ± 680 | 1.94 ± 0.54 | IC50 (TCPTP): > 100 µM; type of inhibition against hPTP1B1−322 (hPTP1B1−322): competitive inhibition; IC50 (hPTP1B1−322): 10.4 µM; Ki (hPTP1B1−322): 3.17 µM
4 |  |  | Cc1ccc(C(=O)Nc2ccc(S(=O)(=O)O)c3cc(S(=O)(=O)O)cc(S(=O)(=O)O)c23)cc1NC(=O)c1cccc(NC(=O)Nc2cccc(C(=O)Nc3cc(C(=O)Nc4ccc(S(=O)(=O)O)c5cc(S(=O)(=O)O)cc(S(=O)(=O)O)c45)ccc3C)c2)c1 [SU, suramin] |  |  |  |  | type of PTP1B inhibition (PTP1B): competitive and reversible inhibitor
5 | > 100 | 2.54 ± 0.05 | Cc1ccc(-n2ncc3c2C(C)(C)C2CCC4(C)C(CC=C5C6CC(C)(C(=O)O)CCC6(C)CCC54C)C2(C)C3)cc1 (centres unmarked) [Compound 5b] |  |  |  |  | 
6 | > 100 | 4.44 ± 0.22 | CC1(C(=O)O)CCC2(C)CCC3(C)C(=CCC4C5(C)Cc6c([nH]c7ccc(C(F)(F)F)cc67)C(C)(C)C5CCC43C)C2C1 (centres unmarked) [Compound 3a] |  |  |  |  | potency relative to 18α‐GA (hPTP1B1–400 [1]; hPTP1B1–400): half as potent
7 | > 100 | 2.84 ± 0.26 | CC1(C(=O)O)CCC2(C)CCC3(C)C(=CCC4C5(C)Cc6c([nH]c7ccc(C(F)(F)F)cc67)C(C)(C)C5CCC43C)C2C1 (centres unmarked) [Compound 3b] |  | uncompetitive inhibition | 530 ± 80 | 0.63 ± 0.06 | Ki (hPTP1B1–400 [2]; K i, ± S.D, hPTP1B1–400, p‐NPP 0.1 to 0.5 mM): 1.16 ± 0.13 µM
8 |  |  | CC1(C)[C@@H](O)CC[C@]2(C)[C@H]3C(=O)C=C4[C@@H]5C[C@@](C)(C(=O)O)CC[C@]5(C)CC[C@@]4(C)[C@]3(C)CC[C@@H]12 [18β‐GA, 18β‐glycyrrhetinic acid] | do not inhibit TCPTP | uncompetitive inhibition | 2830 ± 960 | 3.13 ± 0.94 | IC50 (TCPTP): > 100 µM; type of inhibition against hPTP1B1−322 (hPTP1B1−322): competitive inhibition; IC50 (hPTP1B1−322): 26.1 µM; Ki (hPTP1B1−322): 16.2 µM
